IC50 data for twelve molecules are collected here from ChEMBL document CHEMBL3994653, “Parallel fluorescent probe synthesis based on the large-scale preparation of BODIPY FL propionic acid” (Bioorg Med Chem Lett, 2017).

This assay has as its target T1, Steroid hormone receptor ERR1 (Homo sapiens, UniProt P11474).
T1 sequence (P11474 whole entry): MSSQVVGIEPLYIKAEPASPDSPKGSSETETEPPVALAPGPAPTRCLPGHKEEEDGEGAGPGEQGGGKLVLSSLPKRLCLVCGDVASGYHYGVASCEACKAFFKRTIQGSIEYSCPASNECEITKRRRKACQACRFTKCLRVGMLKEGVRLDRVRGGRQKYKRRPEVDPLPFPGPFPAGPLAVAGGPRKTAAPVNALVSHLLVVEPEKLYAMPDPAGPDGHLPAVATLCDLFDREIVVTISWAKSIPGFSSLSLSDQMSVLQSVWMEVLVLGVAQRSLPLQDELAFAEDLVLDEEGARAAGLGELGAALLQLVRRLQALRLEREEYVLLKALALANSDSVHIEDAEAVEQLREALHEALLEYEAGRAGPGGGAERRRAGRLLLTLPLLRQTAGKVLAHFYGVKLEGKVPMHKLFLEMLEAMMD
Briefly: Inverse agonist activity at GAL4-fused human ERRalpha expressed in HEK293 cells assessed as inhibition of transcriptional activity after 20 hrs by luciferase reporter gene assay. It counts as cell-based. (A reporter such as luciferase makes a cellular process visible.)

For orientation: IC50 means the concentration that inhibits the measured activity by half. Turning to `CC(=O)c1ccc(N2CCN(C(=O)c3cc4c(C)nn(Cc5cccc(OCC6CN(C(=O)CCC7=[N+]8C(=Cc9c(C)cc(C)n9[B-]8(F)F)C=C7)CCO6)c5)c4s3)C[C@H]2C)nc1` (some centres not stated), the IC50 was above 1000 nM.
The value for `CC(=O)c1ccc(N2CCN(C(=O)c3cc4c(C)nn(Cc5cccc(OCCOCCOCCNC(=O)CCC6=[N+]7C(=Cc8c(C)cc(C)n8[B-]7(F)F)C=C6)c5)c4s3)C[C@H]2C)nc1` was 390 nM; that for `CC(=O)c1ccc(N2CCN(C(=O)c3cc4c(C)nn(Cc5cccc(OCCNC(=O)CCC6=[N+]7C(=Cc8c(C)cc(C)n8[B-]7(F)F)C=C6)c5)c4s3)C[C@H]2C)nc1` was 650 nM.
To `CC(=O)c1ccc(N2CCN(C(=O)c3cc4c(C)nn(Cc5cccc(OCCCCNC(=O)CCC6=[N+]7C(=Cc8c(C)cc(C)n8[B-]7(F)F)C=C6)c5)c4s3)C[C@H]2C)nc1` belongs 170 nM; to `COCCOc1cccc(Cn2nc(C)c3cc(C(=O)N4CCN(c5ccc(C(C)=O)cn5)[C@H](C)C4)sc32)c1`, 22 nM.
The value for `CC(=O)c1ccc(N2CCN(C(=O)c3cc4c(C)nn(Cc5cccc(OCC6CCN(C(=O)CCC7=[N+]8C(=Cc9c(C)cc(C)n9[B-]8(F)F)C=C7)CC6)c5)c4s3)C[C@H]2C)nc1` was 210 nM; that for `CC(=O)c1ccc(N2CCN(C(=O)c3cc4c(C)nn(Cc5cccc(OCC6CCN(C(=O)CCC7=[N+]8C(=Cc9c(C)cc(C)n9[B-]8(F)F)C=C7)C6)c5)c4s3)C[C@H]2C)nc1` (some centres not stated) was 770 nM; that for `CC(=O)c1ccc(N2CCN(C(=O)c3cc4c(C)nn(Cc5cccc(OCCOCCOCCOCCNC(=O)CCC6=[N+]7C(=Cc8c(C)cc(C)n8[B-]7(F)F)C=C6)c5)c4s3)C[C@H]2C)nc1` was 570 nM.
For `CC(=O)c1ccc(N2CCN(C(=O)c3cc4c(C)nn(Cc5cccc(OCCCNC(=O)CCC6=[N+]7C(=Cc8c(C)cc(C)n8[B-]7(F)F)C=C6)c5)c4s3)C[C@H]2C)nc1`, the 50% inhibitory concentration (IC50) worked out at 490 nM.
`CC(=O)c1ccc(N2CCN(C(=O)c3cc4c(C)nn(Cc5cccc(OCCOCCNC(=O)CCC6=[N+]7C(=Cc8c(C)cc(C)n8[B-]7(F)F)C=C6)c5)c4s3)C[C@H]2C)nc1`: the IC50 stood at 280 nM.
To `CC(=O)c1ccc(N2CCN(C(=O)c3cc4c(C)nn(Cc5cccc(OCCCCCNC(=O)CCC6=[N+]7C(=Cc8c(C)cc(C)n8[B-]7(F)F)C=C6)c5)c4s3)C[C@H]2C)nc1` belongs 80 nM.
To `CC(=O)c1ccc(N2CCN(C(=O)c3cc4c(C)nn(Cc5cccc(OCc6ccc(CNC(=O)CCC7=[N+]8C(=Cc9c(C)cc(C)n9[B-]8(F)F)C=C7)cc6)c5)c4s3)C[C@H]2C)nc1` belongs 170 nM.
